According to ChEMBL document CHEMBL1155912, “Synthesis of 6- or 4-functionalized indoles via a reductive cyclization approach and evaluation as aromatase inhibitors” (Bioorg Med Chem Lett, 2008):

Each compound was assayed against T1, CYP17 (steroid 17-alpha-hydroxylase/17,20 lyase) (Homo sapiens, UniProt P05093) (assay: in vitro).
T1 sequence (P05093 whole entry): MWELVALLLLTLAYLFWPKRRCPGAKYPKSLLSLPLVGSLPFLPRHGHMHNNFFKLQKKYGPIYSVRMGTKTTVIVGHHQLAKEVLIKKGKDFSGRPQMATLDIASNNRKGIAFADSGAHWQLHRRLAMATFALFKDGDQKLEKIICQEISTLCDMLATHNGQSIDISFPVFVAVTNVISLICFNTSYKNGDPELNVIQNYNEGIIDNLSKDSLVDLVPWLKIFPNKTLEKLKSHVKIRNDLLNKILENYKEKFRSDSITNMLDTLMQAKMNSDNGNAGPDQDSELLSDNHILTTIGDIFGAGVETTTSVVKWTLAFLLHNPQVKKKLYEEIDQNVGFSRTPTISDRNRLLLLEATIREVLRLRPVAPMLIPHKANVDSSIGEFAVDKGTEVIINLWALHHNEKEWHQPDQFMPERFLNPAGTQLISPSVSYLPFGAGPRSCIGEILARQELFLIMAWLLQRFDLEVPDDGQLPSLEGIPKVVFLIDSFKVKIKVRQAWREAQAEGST
Description: Inhibition of human CYP17 expressed in Escherichia coli pJL17/OR coexpressed with rat NADPH-P450 reductase at 2.5 uM
With `N#Cc1ccc(C(c2cccc3[nH]ccc23)n2ccnc2)cc1` (stereo not drawn) the inhibition at 2.5 µM was 18%.
`N#Cc1ccc(C(c2cccc3[nH]ccc23)n2cncn2)cc1` (stereo not drawn) was tested, and the inhibition at 2.5 µM was < 10%.
For `N#Cc1ccc(C(c2ccc3cc[nH]c3c2)n2ccnc2)cc1` (racemic), the inhibition at 2.5 µM was 26%.
